From patent publication US8703922B2, “Low-viscosity liquid crystal compound” (Chemgenesis Incorporated, priority 2009, dated 2014)

Experiments:
Format in all cases: physicochemical
[1] = Viscosity measurement with AR Rheometer (AR-G2) of the compounds of Examples 1-11; conditions: 25° C., after allowing to stand for 12 hours
Procedure: (§1) The amphipathic compound according to the present invention is in a liquid or a semi-solid state with low viscosity within relatively a wide temperature range. The amphipathic compound according to the present invention preferably has viscosity of 11 Pa·s or less, generally 10 Pa·s or less, more preferably 4.0 Pa·s or less (e.g., 3.5 Pa·s or less), and further preferably 2.0 Pa·s or less, as measured using a viscometer at 25° C., for example. Such measured viscosity is typically measured at a shear rate of 105.7 l/s. To obtain such a measured value, an AR Rheometer (AR-G2, TA Instrument) or a viscosity and viscoelasticity measuring apparatus MARS (Thermo Fisher Scientific K.K.) can be used as a viscometer.
The viscosity of each of the compounds shown in the Examples 1-11 was measured using AR Rheometer (AR-G2, TA Instrument) after allowing to stand at the temperature of 25° C. for 12 hours.

[2] = Liquid crystal formation in compound/water system, analysed by small-angle X-ray scattering (SAXS); conditions: room temperature (25° C.); for Type of liquid crystal formed (SAXS peak ratio): 50 wt % (water-excess condition); for Lattice constant (ac) of the cubic liquid crystal: SAXS
Text: Whether or not a liquid crystal structure has a cubic lattice may be determined by a small-angle X-ray scattering (SAXS) method, for the purpose of confirming whether or not it is cubic liquid crystal. First, an amphipathic compound/water system sample with a predetermined concentration can be added to an X-ray capillary tube made of quartz, for example, and the capillary tube is sealed with an oxy-fuel burner, and subjected to SAXS assay.
Ratio of Pn3m Cubic Liquid Crystal: √{square root over (2)}: √{square root over (3)}: √{square root over (4)}: √{square root over (6)}: √{square root over (8)}: √{square root over (9)}: √{square root over (10)}: , , , [Mathematical expression 1] Ratio of Ia3d Cubic Liquid Crystal: √{square root over (3)}: √{square root over (4)}: √{square root over (7)}: √{square root over (8)}: √{square root over (10)}: √{square root over (11)}: , , , [Mathematical expression 2] Ratio of Im3m Cubic Liquid Crystal: √{square root over (2)}: √{square root over (4)}: √{square root over (6)}: √{square root over (8)}: √{square root over (10)}: √{square root over (12)}: √{square root over (14)}: , , , [Mathematical expression 3]
A peak value is calculated from SAXS data and then the reciprocal ratio is found therefrom according to a method known by persons skilled in the art, so that the space group and the lattice constant can be easily determined.
Mono-O-(5,9,13,17-tetramethyloctadec-4-enoyl)pentaerythritol and pure water were introduced into a mixing device at the concentration of 50 wt % Mono-O-(5,9,13,17-tetramethyloctadec-4-enoyl)pentaerythritol (water-excess condition), and incubation thereof was carried out while performing 100 or more times of mixing operations at room temperature (25° C.) over the period of 24 hours. Thus, a homogeneously mixed sample of mono-O-(5,9,13,17-tetramethyloctadec-4-enoyl)pentaerythritol/water system was obtained. This sample of mono-O-(5,9,13,17-tetramethyloctadec-4-enoyl)pentaerythritol/water system appeared to be a white turbid gel composition.
Subsequently, the thus obtained sample of mono-O-(5,9,13,17-tetramethyloctadec-4-enoyl)pentaerythritol/water system was confirmed to be a cubic liquid crystal by small-angle x-ray scattering (SAXS). The sample of mono-O-(5,9,13,17-tetramethyloctadec-4-enoyl)pentaerythritol/water system was introduced into a quartz X-ray capillary tube, the tip of the capillary was sealed using an oxygen burner, and the capillary tube was subjected to the SAXS analysis. The NANO-Viewer nano-scale X-ray structure analysis equipment (Rigaku) was used for SAXS analysis. SAXS analysis was performed by X-ray irradiation at room temperature (25° C.), 40 kV, 50 mA, wavelength λ=0.1542 nm (Cu-Kα) for 15 min.

[3] = Viscosity measurement with viscosity and viscoelasticity measuring apparatus MARS (Example 179); conditions: 25° C., shear velocity 105.7 s^−1, MARS
Procedure: as §1
The viscosities of the amphiphilic compounds synthesized above were measured at 25° C. and at a shear velocity of 105.7 s^−1 using a viscosity and viscoelasticity measuring apparatus MARS (Thermo Fisher Scientific).

Viscosity [1] [Pa·s] | Lattice constant (ac) of the cubic liquid crystal [2] [nm] | Viscosity (Pas · sec) [3] [Pas · sec] | Molecule | Type of liquid crystal formed (SAXS peak ratio) [2]
2.3 |  |  | CC(=CCCCOC[C@H](O)[C@H](O)CO)CCCC(C)CCCC(C)CCCC(C)C (some centres unmarked) [1-O-(5,9,13,17-tetramethyloctadec-4-enyl)erythritol] | reverse hexagonal liquid crystal
3.2 | 8.9 |  | CC(=CCCCOC(CO)C(O)CO)CCCC(C)CCCC(C)CCCC(C)C (centres unmarked) [2-O-(5,9,13,17-tetramethyloctadec-4-enyl)erythritol] | cubic liquid crystal that belong to the crystallographic space group Pn3m
1.7 | 7.80 |  | CC(=CCCC(=O)OCC(CO)(CO)CO)CCCC(C)CCCC(C)CCCC(C)C (centres unmarked) [Example 1, mono-O-(5,9,13,17-tetramethyloctadec-4-enoyl)pentaerythritol] | cubic liquid crystal that belong to the crystallographic space group Pn3m
2.0 |  |  | CC(=CCCC(=O)OC[C@H](O)[C@H](O)CO)CCCC(C)CCCC(C)CCCC(C)C (some centres unmarked) [Example 2, mono-O-(5,9,13,17-tetramethyloctadec-4-enoyl)erythritol] | reverse hexagonal liquid crystal
 |  |  | CC(=CCCC(=O)OCC(O)CO)CCCC(C)CCCC(C)CCCC(C)C (centres unmarked) [Example 3, mono-O-(5,9,13,17-tetramethyloctadec-4-enoyl)glycerol] | cubic liquid crystal that belong to the crystallographic space group Pn3m
 | 8.9 |  | CC(=CCCCOC1OCC(O)C(O)C1O)CCCC(C)CCCC(C)CCCC(C)C [Example 9, 1-O-(5,9,13,17-tetramethyloctadec-4-enyl)-D-xylopyranoside] | cubic liquid crystal that belong to the crystallographic space group Pn3m
1.9 |  |  | CC(=CCCCOCC(CO)(CO)CO)CCCC(C)CCCC(C)CCCC(C)C (centres unmarked) [Example 10, mono-O-(5,9,13,17-tetramethyloctadec-4-enyl)pentaerythritol] | reverse hexagonal liquid crystal
 |  | 0.44 | CC(=CCCCOCC(O)CO)CCCC(C)CCCC(C)CCCC(C)C (centres unmarked) [Example 31, mono-O-(5,9,13,17-tetramethyloctadec-4-enyl)glycerol] | 
 |  |  | CC(=CCCCOCC(O)COCC(O)CO)CCCC(C)CCCC(C)CCCC(C)C (centres unmarked) [Example 32, mono-O-(5,9,13,17-tetramethyloctadec-4-enyl)diglycerol] | cubic liquid crystal that belong to the crystallographic space group Pn3m
 |  | 1.1 | CC(=CC(=O)OCC(O)CO)CCCC(C)CCCC(C)CCCC(C)C (centres unmarked) [Example 65, mono-O-(3,7,11,15-tetramethylhexadec-2-enoyl)glycerol] | 
 |  | 10.6 | CC(=CC(=O)OCC(CO)(CO)CO)CCCC(C)CCCC(C)CCCC(C)C (centres unmarked) [Example 67, mono-O-(3,7,11,15-tetramethylhexadec-2-enoyl)pentaerythritol] | 
 |  | 9.5 | CC(=CC(=O)OCC(O)COCC(O)CO)CCCC(C)CCCC(C)CCCC(C)C (centres unmarked) [Example 68, mono-O-(3,7,11,15-tetramethylhexadec-2-enoyl)diglycerol] | 
 |  | 0.45 | CC(=CCOCC(O)CO)CCCC(C)CCCC(C)CCCC(C)C (centres unmarked) [Example 80, mono-O-(3,7,11,15-tetramethylhexadec-2-enyl)glycerol] | 
 |  | 4.0 | CC(=CCOCC(CO)(CO)CO)CCCC(C)CCCC(C)CCCC(C)C (centres unmarked) [Example 82, mono-O-(3,7,11,15-tetramethylhexadec-2-enyl)pentaerythritol] | 
 |  | 0.48 | CC(=CCCC(=O)OCC(O)CO)CCCC(C)CCCC(C)C (centres unmarked) [Example 92, mono-O-(5,9,13-trimethyltetradec-4-enoyl)glycerol] | mixture of a cubic liquid crystal that belong to the crystallographic space group Pn3m and a reverse hexagonal liquid crystal
 |  | 10.5 | CC(=CCCC(=O)OCC(O)COCC(O)CO)CCCC(C)CCCC(C)C (centres unmarked) [Example 95, mono-O-(5,9,13-trimethyltetradec-4-enoyl)diglycerol] | 
 |  |  | CC(=CCCCOC1OCC(O)C(O)C1O)CCCC(C)CCCC(C)C [Example 103, 1-O-(5,9,13-trimethyltetradec-4-enyl)-D-xylopyranoside] | cubic liquid crystal that belong to the crystallographic space group Pn3m
 |  |  | CC(=CCCCOCC(O)CO)CCCC(C)CCCC(C)C (centres unmarked) [Example 107, mono-O-(5,9,13-trimethyltetradec-4-enyl)glycerol] | reverse hexagonal liquid crystal
 |  | 0.98 | CC(=CCCCOCC(CO)(CO)CO)CCCC(C)CCCC(C)C (centres unmarked) [Example 109, mono-O-(5,9,13-trimethyltetradec-4-enyl)pentaerythritol] | 
 |  | 1.7 | CC(=CCCCOCC(O)COCC(O)CO)CCCC(C)CCCC(C)C (centres unmarked) [Example 110, mono-O-(5,9,13-trimethyltetradec-4-enyl)diglycerol] | 
 |  |  | CC(=CCC(=O)OCC(O)CO)CCCC(C)CCCC(C)C (centres unmarked) [Example 120, mono-O-(4,8,12-trimethyltridec-3-enoyl)glycerol] | cubic liquid crystal that belong to the crystallographic space group Pn3m
 |  | 0.45 | CC(=CC(=O)OCC(O)CO)CCCC(C)CCCC(C)C (centres unmarked) [Example 146, mono-O-(3,7,11-trimethyldodec-2-enoyl)glycerol] | cubic liquid crystal that belong to the crystallographic space group Pn3m
 |  | 7.1 | CC(=CC(=O)OC[C@H](O)[C@H](O)CO)CCCC(C)CCCC(C)C (some centres unmarked) [Example 147, mono-O-(3,7,11-trimethyldodec-2-enoyl)erythritol] | 
 |  | 6.9 | CC(=CC(=O)OCC(O)COCC(O)CO)CCCC(C)CCCC(C)C (centres unmarked) [Example 149, mono-O-(3,7,11-trimethyldodec-2-enoyl)diglycerol] | 
 |  | 2.7 | CC(=CCOCC(CO)(CO)CO)CCCC(C)CCCC(C)C (centres unmarked) [Example 163, mono-O-(3,7,11-trimethyldodec-2-enyl)pentaerythritol] | 
 |  | 1.1 | CC(=CCOC[C@H](O)[C@@H](O)[C@H](O)CO)CCCC(C)CCCC(C)C (some centres unmarked) [Example 166, mono-O-(3,7,11-trimethyldodec-2-enyl)xylitol] | 
 |  | 4.5 | mono-O-(5,9,13,17-tetramethyloctadec-4-enoyl)di glycerol [Example 4] | reverse hexagonal liquid crystal
